The values that follow come from BindingDB's records for doi:10.1016/s0960-894x(98)00132-2 (Green Cross Research Laboratories, 1999).

For the assay, the target named is Chymotrypsinogen A (Bos taurus) (UniProt P00766). Nature of the assay: Compound was evaluated for inhibitory activity against Bovine Chymotrypsinogen.

The molecule `CC(C)(C)OC(=O)NC(CC(=O)O)C(=O)N1CCC[C@H]1C(=O)NC(Cc1ccccc1)C(=O)C(F)(F)C(=O)Nc1cccc(C(=O)O)c1` (stereo partly drawn) [3-(4-{[(S)-1-(2-tert-Butoxycarbonylamino-3-carboxy-propionyl)-pyrrolidine-2-carbonyl]-amino}-2,2-difluoro-3-oxo-5-phenyl-pentanoylamino)-benzoic acid] yielded a Ki of over 100000 nM.

Molecule `CC(C)(C)OC(=O)NC(CCC(=O)O)C(=O)N1CCC[C@H]1C(=O)NC(Cc1ccccc1)C(=O)C(F)(F)C(=O)Nc1cccc(C(=O)O)c1` (stereo partly drawn) [3-(4-{[(S)-1-(2-tert-Butoxycarbonylamino-4-carboxy-butyryl)-pyrrolidine-2-carbonyl]-amino}-2,2-difluoro-3-oxo-5-phenyl-pentanoylamino)-benzoic acid] came in with a Ki of 1300 nM. In other words, the single-digit micromolar range.

As to `CC(C)(C)OC(=O)NC(CCC(=O)O)C(=O)N1CCC[C@H]1C(=O)NC(Cc1ccccc1)C(=O)C(F)(F)C(=O)Nc1cc(C(=O)O)cs1` (stereo partly drawn) [5-(4-{[(S)-1-(2-tert-Butoxycarbonylamino-4-carboxy-butyryl)-pyrrolidine-2-carbonyl]-amino}-2,2-difluoro-3-oxo-5-phenyl-pentanoylamino)-thiophene-3-carboxylic acid], the Ki is over 100000 nM.

The molecule `CC(C)(C)OC(=O)NC(CCC(=O)O)C(=O)N1CCC[C@H]1C(=O)NC(Cc1ccccc1)C(=O)C(F)(F)C(=O)Nc1cccc(S(N)(=O)=O)c1` (stereo partly drawn) [5-{(S)-2-[1-Benzyl-3,3-difluoro-2-oxo-3-(3-sulfamoyl-phenylcarbamoyl)-propylcarbamoyl]-pyrrolidin-1-yl}-4-tert-butoxycarbonylamino-5-oxo-pentanoic acid] gave a Ki of 1030 nM.

In turn, `CC(C)(C)OC(=O)NC(CCC(=O)O)C(=O)N1CCC[C@H]1C(=O)NC(Cc1ccccc1)C(=O)C(F)(F)C(=O)Nc1cccc(C(N)=O)c1` (stereo partly drawn) [5-{(S)-2-[1-Benzyl-3-(3-carbamoyl-phenylcarbamoyl)-3,3-difluoro-2-oxo-propylcarbamoyl]-pyrrolidin-1-yl}-4-tert-butoxycarbonylamino-5-oxo-pentanoic acid] came in with a Ki of 1220 nM.

In turn, `CC(C)(C)OC(=O)NC(CCC(=O)O)C(=O)N1CCC[C@H]1C(=O)NC(Cc1ccccc1)C(=O)C(F)(F)C(=O)Nc1cccc(CC(=O)O)c1` (stereo partly drawn) [5-{(S)-2-[1-Benzyl-3-(3-carboxymethyl-phenylcarbamoyl)-3,3-difluoro-2-oxo-propylcarbamoyl]-pyrrolidin-1-yl}-4-tert-butoxycarbonylamino-5-oxo-pentanoic acid] returned a Ki of 3950 nM.

As usually defined, the Ki is the equilibrium dissociation constant of an inhibitor or competing ligand from its target. A low value points to a stronger hold on the target.
